Laboratory results taken from US10918741B2, “PSMA-targeting imaging agents” (THE CLEVELAND CLINIC FOUNDATION, priority 2014, dated 2021).
“Also recorded” adds a separate entry of the source. Primed or numbered codes have the meaning given here. Where no end group is shown, it is not given here. [ ]: non-standard residue; d: D form. Amc = N-aminomethyl cyclohexanoic acid; Ahx = NCCCCCC(=O)O; E′E = Glu-urea-Glu

Tests used:
[1] = hematological, biochemistry, and histopathological analyses; cited from earlier work
[2] = cited from earlier work
[3] = system: PC3-pip (PSMA-positive) and PC3-flu (PSMA-negative) tumors; assay: Preoperative NIR imaging with the Maestro in vivo imaging system; set-up: species or system mice
Description: PC3-pip (PSMA-positive) and PC3-flu (PSMA-negative) cells were injected subcutaneously 1.0×10^6 PC3 cells with 200 µL of matrigel into each flank of 6 NOD SCID Gamma (NSG) mice. Chang et al., Cancer Res.; 59:3192-3198 (1999). After the tumors reached a size of ˜5 mm, the mice were anesthetized with isoflurane and were administered 2 or 10 nmol of PSMA-binding fluorescent conjugate via tail vein injection. Preoperative NIR imaging was performed using the Maestro in vivo imaging system (Cambridge Research and Instrumentation, Hopkinton, Mass.). The mice were imaged immediately and at 1-hour intervals after injection of the PSMA targeting fluorescent compound for up to 4 hours. The mice were killed once PSMA+ and PSMA− tumors could be visually differentiated by NIR imaging. The method used was CO2 asphyxiation followed by cervical dislocation.

[4] = system: PC3-pip (PSMA-positive) and PC3-flu (PSMA-negative) tumors; assay: NIR fluorescence-guided robotic surgery (da Vinci Si); format: in vivo, mice
Excerpt: Mouse carcasses were operated on using a da Vinci Si Robot (Intuitive Surgical, Sunnyvale, Calif.). A portable dark box was used to minimize ambient light and to allow optimal fluorescence detection. Three robotic instruments (the novel endoscope to detect NIR fluorescence, a scissor, and a grasper) were inserted through robotic trocars positioned across the top cover of the dark box. The tumors were excised using the new robotic camera to detect the fluorescence of the PSMA-binding conjugate. All procedures were done by a single surgeon (R.S.), who had extensive experience in robotic surgery. Tumor specimens were sent for histopathological analysis to assess margin status.

[5] = format: physicochemical
Description: Labeling with technetium typically yields 95% radiochemical purity after SepPak purification. […] The kidneys and bladder are the most prominent organs on the images, because PSMA is expressed naturally in mouse kidneys and because it is a renally excreted compound. […] Tumor uptake is 6.0±1.6% at 2 hours, 6.0±2.2% at 4 hours and 5.7%±2.5% at 6 hours (Table 2). […] This is likely related to residual pertechnetate after cartridge purification and dissociation of technetium from the chelate.

PC3-PIP tumors = system: PC3-PIP tumors; set-up: species or system mice; conditions: mouse, in vivo
Description: (§1) Male NOD scid gamma (NSG) mice bearing PC3-PIP (PSMA+) and PC3-flu (PSMA−) tumor xenographs were used for imaging. The mice were injected with 3 mCi of [^99mTc]3. Four hours after tracer injection, SPECT/CT images were acquired using a high-resolution multi-pinhole SPECT with collimation insert with a clinical SPECT/CT scanner (Symbia T6, Siemens Molecular Imaging). DiFilippo, F. P. Phys Med Biol 53(15): 4185-4201 (2008). For the biodistribution study without imaging, male NSG mice bearing two PC3-PIP tumors were injected with 50-100 µCi of [^99mTc]3. Mice were sacrificed at 2 hours, 4 hours and 6 hours after injection. After thoracotomy, blood was first withdrawn from the heart, then the organs were resected en-block. The activities were counted with a Perkin Elmer 2480 Automatic Gamma Counter. The decay corrected percent injected dose per gram of organ weight (wet) (% ID/g) was calculated.

[6] = system: PC3-PIP (PSMA+) and PC3-flu (PSMA−) tumor xenographs; assay: SPECT/CT imaging of [^99mTc]3; format: in vivo, mice; conditions: 4 hours after tail vein injection
Description: as §1

CC1(C)C(=CC=C2CCCC(C=CC3=[N+](CCCCCC(=O)[O-])c4ccc(S(=O)(=O)[O-])cc4C3(C)C)=C2Oc2ccc(S(=O)(=O)[O-])cc2)N(CCCCS(=O)(=O)[O-])c2ccc(S(=O)(=O)[O-])cc21.[Na+].[Na+].[Na+].[Na+] [IRDye 800CW]
toxicity in words [1]: no pathologic evidence of toxicity | water solubility in words [2]: highly water soluble

ZJ-MCC-dEdEdEGK(IRDye800cw)G
mice with proper targeting on presurgical NIR imaging ([3]; 10 nmol): Two of the 3 mice | preoperative NIR fluorescence imaging result in words ([3]; Maestro in vivo imaging system): strong fluorescence signal from the tracer in the right flank (PSMA positive tumor), bladder, and urethra | time to detect peak fluorescence from the PSMA-positive tumors ([3]; first 3 mice, Maestro imaging system): 120 min | signal intensity from the tumor ([3]; within 240 minutes): already partially decreased | mice with fluorescence detected from the PSMA positive tumors during robotic surgery ([4]; 10 nmol, 120 minutes after injection): 2 of 3 | intensity of fluorescence during robotic surgery ([4]; PSMA positive tumors): weak | fluorescence in the PSMA negative (control) tumors ([4]; mouse, in vivo): no tumor fluorescence was identified in any of the mice

^99mTc-E′EAmc-Ahx-dEdEdEGYGGGC ({E′E-Amc}-[Ahx][dE][dE][dE]GYGGGC; not fully specified (C-terminus); also: 99mTc chelated (N3S1)) [[^99mTc]3, Tc99m labeled compound 3]
stability under solvent conditions for HPLC [5]: not stable | radioactivity in the stomach (PC3-PIP tumors): 0.2 % ID/g | radioactivity in the thyroid (PC3-PIP tumors): 0.3 % ID/g | SPECT/CT imaging result in words [6]: specific targeting of PSMA+PC3-PIP tumors with no significant binding to PC3-flu tumors; also recorded: near background tracer uptake in the PSMA negative tumors, liver, lung, heart and spleen
